We go through 30 compounds from patent publication US12473262B2, “Aryl hydrocarbon receptor activators” (Oregon State University, priority 2019, dated 2025).

This assay has as its target aryl hydrocarbon receptor (AhR) (Mus musculus (Mouse), UniProt P30561). In words: AhR ligand screening: AhRE-luciferase reporter in transfected Hepa1 cells. Format: cell-based. The following applies: for Fold @ 1 nM: fold change of luciferase expression at 1 nM test compound relative to vehicle (0.1% DMSO); for Fold @ 100 nM: fold change of luciferase expression at 100 nM test compound relative to vehicle (0.1% DMSO); for Fold @ 10 uM: fold change of luciferase expression at 10 uM test compound relative to vehicle (0.1% DMSO); for Fold relative to benchmark @ 100 nM: luciferase expression at 100 nM test compound relative to 100 nM benchmark compound 11-cl-BBQ. An excerpt:
The AhR is a ligand-activated transcription factor that dimerizes with ARNT to regulate gene expression, and genes that are regulated by AhR ligands have AhR response elements (AhRE) in their promotor regions.
Briefly, Hepa1 cells were transfected with a reporter construct consisting of AhRE linked to luciferase. The addition of AhR ligands to the transfected cells induces luciferase production that is directly proportional to the amount of AhR activation. We used this reporter system to identify novel compounds with AhR-activating properties. Transfected Hepa1 cells were plated at a density of 1×10^4 cells/well in 100 μL of cell culture media in 96 well plates and grown overnight. […] Following incubation with the compounds, the media was removed, and cells were harvested with lysis buffer. The lysates were transferred to opaque 96 well plates, where they were assayed well-by-well for luciferase activity by injection of luciferase assay substrate with a 2 sec mixing time and 15 sec integration period on a Tropix TR717 microplate luminometer. Data were expressed as fold induction of luciferase relative to vehicle (0.1% DMSO) treated cells.

Chain of aryl hydrocarbon receptor (AhR) (P30561 10-805): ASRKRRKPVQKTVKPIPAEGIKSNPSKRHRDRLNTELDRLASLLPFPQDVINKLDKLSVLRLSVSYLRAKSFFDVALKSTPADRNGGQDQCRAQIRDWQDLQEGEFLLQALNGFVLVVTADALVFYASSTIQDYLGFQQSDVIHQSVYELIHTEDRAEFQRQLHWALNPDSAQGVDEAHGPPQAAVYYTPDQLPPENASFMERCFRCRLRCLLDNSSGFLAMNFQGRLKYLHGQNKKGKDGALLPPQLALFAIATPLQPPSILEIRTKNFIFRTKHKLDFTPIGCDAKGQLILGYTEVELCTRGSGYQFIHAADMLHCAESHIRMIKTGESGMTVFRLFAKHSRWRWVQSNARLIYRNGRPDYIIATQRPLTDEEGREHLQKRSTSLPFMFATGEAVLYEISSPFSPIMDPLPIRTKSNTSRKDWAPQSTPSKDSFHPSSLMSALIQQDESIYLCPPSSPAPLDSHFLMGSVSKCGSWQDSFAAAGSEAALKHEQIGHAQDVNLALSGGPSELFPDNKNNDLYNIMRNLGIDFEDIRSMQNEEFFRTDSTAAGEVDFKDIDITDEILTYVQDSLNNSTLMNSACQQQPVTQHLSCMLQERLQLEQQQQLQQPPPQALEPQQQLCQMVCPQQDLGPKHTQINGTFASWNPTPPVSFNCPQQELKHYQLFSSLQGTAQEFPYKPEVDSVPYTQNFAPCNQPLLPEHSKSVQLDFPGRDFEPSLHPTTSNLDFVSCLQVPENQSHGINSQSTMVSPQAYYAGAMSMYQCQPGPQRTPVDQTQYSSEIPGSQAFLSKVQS
Chain of aryl hydrocarbon receptor (AhR) (P53762 whole entry partner): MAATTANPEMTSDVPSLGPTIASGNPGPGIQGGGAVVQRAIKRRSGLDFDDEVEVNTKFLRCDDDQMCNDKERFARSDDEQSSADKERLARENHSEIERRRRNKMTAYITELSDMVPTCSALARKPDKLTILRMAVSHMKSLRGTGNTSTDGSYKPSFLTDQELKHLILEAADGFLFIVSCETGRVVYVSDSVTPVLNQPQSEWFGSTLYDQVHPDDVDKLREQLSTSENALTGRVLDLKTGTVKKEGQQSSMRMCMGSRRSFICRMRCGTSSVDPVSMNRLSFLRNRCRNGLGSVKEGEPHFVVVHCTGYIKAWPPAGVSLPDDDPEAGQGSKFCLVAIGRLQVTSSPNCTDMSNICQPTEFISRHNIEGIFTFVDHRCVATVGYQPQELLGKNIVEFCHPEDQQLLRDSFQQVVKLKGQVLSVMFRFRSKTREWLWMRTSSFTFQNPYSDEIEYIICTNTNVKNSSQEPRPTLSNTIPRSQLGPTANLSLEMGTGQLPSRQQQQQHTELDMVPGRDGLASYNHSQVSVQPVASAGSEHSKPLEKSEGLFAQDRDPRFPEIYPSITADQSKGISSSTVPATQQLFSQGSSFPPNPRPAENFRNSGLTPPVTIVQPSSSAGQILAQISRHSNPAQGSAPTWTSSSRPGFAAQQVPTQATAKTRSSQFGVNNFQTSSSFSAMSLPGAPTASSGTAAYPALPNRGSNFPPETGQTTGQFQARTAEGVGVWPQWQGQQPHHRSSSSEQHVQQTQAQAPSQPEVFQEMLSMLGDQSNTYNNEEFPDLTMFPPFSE

In the case of `O=C(c1cccc2ccccc12)n1c(-c2ccccc2)nc2cc(Cl)ccc21` [Compound 490, (5-chloro-2-phenyl-1H-benzo[d]imidazol-1-yl)(naphthalen-1-yl)methanone], the “Fold @ 1 nM” value came to 1 fold, the “Fold @ 100 nM” value was 1 fold, the “Fold @ 10 uM” value is recorded as 17 fold and the “Fold relative to benchmark @ 100 nM” value is reported as 0.03 fold.
Consider `COc1ccc(C(=O)n2c(-c3cc4ccccc4s3)nc3ccc(F)cc32)cc1` [Compound 635], for which the “Fold @ 1 nM” value is reported as 1 fold, the “Fold @ 100 nM” value was found to be 2 fold, the “Fold @ 10 uM” value is recorded as 24 fold and the “Fold relative to benchmark @ 100 nM” value is reported as 0.22 fold.
The matching figures for `O=C(c1ccc2c(c1)nc(-c1cccc3ccccc13)n2Cc1ccc(F)cc1)N1CCOCC1` [Compound 1403]: 1 fold, 2 fold, 20 fold and 0.07 fold.
The matching figures for `COc1ccc2c(c1)nc(-c1cccc3ccccc13)n2C(=O)c1ccccc1` [Compound 639]: 1 fold, 1 fold, 5 fold and 0.11 fold.
For `O=C(c1ccc2nc(-c3cccc4ccccc34)n(S(=O)(=O)c3ccc4ccccc4c3)c2c1)N1CCOCC1` [Compound 1389], the “Fold @ 1 nM” value was found to be 1 fold, the “Fold @ 100 nM” value came to 1 fold, the “Fold @ 10 uM” value amounted to 3 fold and the “Fold relative to benchmark @ 100 nM” value came out at 0.03 fold.
In the case of `COC(=O)c1ccc2nc(-c3cccc4ccccc34)n(S(=O)(=O)c3ccc(C#N)cc3)c2c1` [Compound 1362], the “Fold @ 1 nM” value amounted to 5 fold, the “Fold @ 100 nM” value worked out at 3 fold, the “Fold @ 10 uM” value was found to be 18 fold and the “Fold relative to benchmark @ 100 nM” value was 0.1 fold.
For `O=C(c1ccc2nc(-c3cccc4ccccc34)n(S(=O)(=O)c3ccc4ccccc4c3)c2c1)N1CCCCC1` [Compound 1341], in that order: 1 fold, 1 fold, 5 fold and 0.03 fold.
For the compound `O=C(c1ccccc1)n1c(-c2ccc(F)cc2)nc2ccc(Cl)cc21` [Compound 493], the “Fold @ 1 nM” value worked out at 1 fold, the “Fold @ 100 nM” value stood at 1 fold, the “Fold @ 10 uM” value was 16 fold and the “Fold relative to benchmark @ 100 nM” value is listed as 0.03 fold.
For `c1ccc2c(c1)Cn1c3ccccc3c3ccnc-2c31` [Compound 526], the “Fold @ 1 nM” value is 2.7 fold, the “Fold @ 100 nM” value is 10 fold, the “Fold @ 10 uM” value worked out at 28 fold and the “Fold relative to benchmark @ 100 nM” value is 0.71 fold.
For `CN1CCN(C(=O)c2ccc3c(c2)nc(-c2cccc4ccccc24)n3S(=O)(=O)c2cccc(F)c2)CC1` [Compound 1392], in that order: 1 fold, 1 fold, 4 fold and 0.03 fold.
The matching figures for `COc1ccc(C(=O)n2c(-c3cc4ccccc4s3)nc3cc(Cl)ccc32)cc1` [Compound 590]: 1 fold, 3 fold, 45 fold and 0.2 fold.
For `COc1ccc(Cn2c(-c3cccc4ccccc34)nc3ccc(Cl)cc32)cc1` [Compound 853], in that order: 1 fold, 1 fold, 11 fold and 0.03 fold.
On to `O=C(c1cc2cc(Cl)ccc2o1)c1cccc2ccccc12` [Compound 406, (5-chlorobenzofuran-2-yl)(naphthalen-1-yl)methanone], for which the “Fold @ 1 nM” value was 1 fold, the “Fold @ 100 nM” value is recorded as 1 fold, the “Fold @ 10 uM” value turned out to be 7.5 fold and the “Fold relative to benchmark @ 100 nM” value is listed as 0.03 fold.
As for `O=C(c1ccccc1)n1c(-c2ccc(F)cc2)nc2cc(Cl)ccc21` [Compound 492], the “Fold @ 1 nM” value turned out to be 1 fold, the “Fold @ 100 nM” value is reported as 1 fold, the “Fold @ 10 uM” value is on record as 14 fold and the “Fold relative to benchmark @ 100 nM” value is listed as 0.03 fold.
As for `O=C(c1ccc2c(c1)OCCO2)n1c(-c2cccc3ccccc23)nc2cc(Cl)ccc21` [Compound 851], the “Fold @ 1 nM” value turned out to be 1 fold, the “Fold @ 100 nM” value was 21 fold, the “Fold @ 10 uM” value is listed as 29 fold and the “Fold relative to benchmark @ 100 nM” value is given as 0.84 fold.
The matching figures for `O=C(c1cccc2ccccc12)c1c[nH]c2cc(Cl)ccc12` [Compound 433]: 1 fold, 1 fold, 7 fold and 0.03 fold.
Consider `O=C(c1ccc2c(c1)nc(-c1cccc3ccccc13)n2S(=O)(=O)c1cccc(F)c1)N1CCCCC1` [Compound 1368], for which the “Fold @ 1 nM” value came out at 1 fold, the “Fold @ 100 nM” value was 2 fold, the “Fold @ 10 uM” value came to 2 fold and the “Fold relative to benchmark @ 100 nM” value was 0.07 fold.
Take `O=C(c1ccc(SC(F)(F)F)cc1)n1c(-c2cccc3ccccc23)nc2cc(Cl)ccc21` [Compound 686]: the “Fold @ 1 nM” value stood at 1 fold, the “Fold @ 100 nM” value is 24 fold, the “Fold @ 10 uM” value amounted to 31 fold and the “Fold relative to benchmark @ 100 nM” value is reported as 0.92 fold.
As for `COc1ccc(C(=O)n2c(-c3cccc(C(F)(F)F)c3)nc3cc(Cl)ccc32)cc1` [Compound 764], the “Fold @ 1 nM” value amounted to 1 fold, the “Fold @ 100 nM” value is reported as 2 fold, the “Fold @ 10 uM” value came to 20 fold and the “Fold relative to benchmark @ 100 nM” value was 0.08 fold.
The matching figures for `CN1CCN(C(=O)c2ccc3c(c2)nc(-c2cccc4ccccc24)n3Cc2ccc(F)c(F)c2)CC1` [Compound 1364]: 1 fold, 1 fold, 3 fold and 0.03 fold.
For `O=C(c1ccc(F)c(F)c1)n1c(-c2ccc(F)c(Cl)c2)nc2cc(Cl)ccc21` [Compound 580], in that order: 1 fold, 3 fold, 14 fold and 0.2 fold.
For `N#Cc1ccc(C(=O)n2c(-c3cccc4ccccc34)nc3ccc(Cl)cc32)cc1` [Compound 689], in that order: 1 fold, 28 fold, 47 fold and 1.08 fold.
Take `O=c1c2cccc3cccc(c32)c2nc3ccccc3n12` [Compound 523]: the “Fold @ 1 nM” value is on record as 1.8 fold, the “Fold @ 100 nM” value is recorded as 11.5 fold, the “Fold @ 10 uM” value is 12 fold and the “Fold relative to benchmark @ 100 nM” value came out at 0.82 fold.
As to `O=C(c1ccc(F)c(F)c1)n1c(-c2cccc(C(F)(F)F)c2Cl)nc2cc(Cl)ccc21` [Compound 875], the “Fold @ 1 nM” value came out at 1 fold, the “Fold @ 100 nM” value is recorded as 3 fold, the “Fold @ 10 uM” value worked out at 48 fold and the “Fold relative to benchmark @ 100 nM” value stood at 0.06 fold.
The matching figures for `O=C(c1ccc(OC(F)(F)F)cc1)n1c(-c2cccc3ccccc23)nc2cc(Cl)ccc21` [Compound 696]: 1 fold, 22 fold, 51 fold and 0.85 fold.
In the case of `O=C(c1ccc2c(c1)nc(-c1cccc3ccccc13)n2S(=O)(=O)c1cccc(F)c1)N1CCOCC1` [Compound 1356], the “Fold @ 1 nM” value is given as 1 fold, the “Fold @ 100 nM” value was 1 fold, the “Fold @ 10 uM” value is 1 fold and the “Fold relative to benchmark @ 100 nM” value is recorded as 0.03 fold.
Take `O=C(c1cccc2ccccc12)c1c[nH]c2ccc(Cl)cc12` [Compound 364, (5-chloro-1H-indol-3-yl)(naphthalen-1-yl)methanone]: the “Fold @ 1 nM” value amounted to 1 fold, the “Fold @ 100 nM” value was 2 fold, the “Fold @ 10 uM” value was found to be 11 fold and the “Fold relative to benchmark @ 100 nM” value is 0.05 fold.
Take `Clc1ccc2c(c1)nc(-c1cccc3ccccc13)n2Cc1ccccc1` [Compound 533, 1-benzyl-5-chloro-2-(naphthalen-1-yl)-1H-benzimidazole]: the “Fold @ 1 nM” value is 1 fold, the “Fold @ 100 nM” value is reported as 1 fold, the “Fold @ 10 uM” value was found to be 13 fold and the “Fold relative to benchmark @ 100 nM” value was 0.03 fold.
Take `Clc1ccc2nc(-c3cccc4ccccc34)n(Cc3ccnc4ccccc34)c2c1` [Compound 868]: the “Fold @ 1 nM” value is recorded as 1 fold, the “Fold @ 100 nM” value amounted to 2 fold, the “Fold @ 10 uM” value is 28 fold and the “Fold relative to benchmark @ 100 nM” value is recorded as 0.07 fold.
Turning to `O=C(c1ccc2c(c1)OCCO2)n1c(-c2cccc3ccccc23)nc2cc(Cl)ccc21` [Compound 850], the “Fold @ 1 nM” value was determined as 1 fold, the “Fold @ 100 nM” value is listed as 22 fold, the “Fold @ 10 uM” value came to 33 fold and the “Fold relative to benchmark @ 100 nM” value came out at 0.88 fold.
